Where “and” joins values, the source holds several entries; their conditions need not be identical. Equal values may be shown once.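 Grown in 96-well plates, cells were treated for 48 hours with each compound at five concentrations. Insufficient inhibition: endpoint recorded as highest concentration tested. At the GI50, growth is halved. The concentration for full growth arrest is given as TGI.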
Tests used:
Test in all cases: NCI-60 cell line screen, 48 h
DU-145 prostate = tested on: DU-145 prostate
U251 CNS = tested on: U251 CNS
UACC-257 melanoma = tested on: UACC-257 melanoma
CAKI-1 renal = tested on: CAKI-1 renal
NCI/ADR-RES ovarian = tested on: NCI/ADR-RES ovarian
MALME-3M melanoma = tested on: MALME-3M melanoma
SR leukemia = tested on: SR leukemia
SK-MEL-2 melanoma = tested on: SK-MEL-2 melanoma
UO-31 renal = tested on: UO-31 renal
SF-268 CNS = tested on: SF-268 CNS

Row | SMILES | GI50 (DU-145 prostate) [µM] | TGI (DU-145 prostate) | GI50 (U251 CNS) [µM] | TGI (U251 CNS) | GI50 (UACC-257 melanoma) [µM] | TGI (UACC-257 melanoma) | GI50 (CAKI-1 renal) [µM] | TGI (CAKI-1 renal) | GI50 (NCI/ADR-RES ovarian) [µM] | TGI (NCI/ADR-RES ovarian) | GI50 (MALME-3M melanoma) [µM] | TGI (MALME-3M melanoma) | GI50 (SR leukemia) [µM] | TGI (SR leukemia) [µM] | GI50 (SK-MEL-2 melanoma) [µM] | TGI (SK-MEL-2 melanoma) | GI50 (UO-31 renal) [µM] | TGI (UO-31 renal) | GI50 (SF-268 CNS) [µM] | TGI (SF-268 CNS)
1 | CC(C)(C)c1cc(/C=N/NC(=O)c2ccccc2NC(=O)c2cccs2)c(O)c(C(C)(C)C)c1 | 4.13 | > 100 µM | 0.7 | 7.64 µM | 6.18 | > 100 µM | 0.536 | > 100 µM | 0.606 | 15.9 µM | 2.11 | 26.7 µM | 0.786 | 3.6 | 20.2 | > 100 µM | 0.269 | 15.7 µM | 0.668 | > 100 µM
2 | COc1cccc(-c2cc(=O)c3cc(N4CCOCC4)ccc3[nH]2)c1 | 0.0546 |  |  |  | 0.02 | > 100 µM |  | > 100 µM |  | 0.271 µM and 0.751 µM | 0.019 |  |  | 0.741 | 0.0937 |  | 0.0713 | > 100 µM | 0.149 | 57.6 µM
3 | COC(=O)c1ccc(/C=C(\c2ccc([N+](=O)[O-])o2)S(=O)(=O)c2ccc(NC(C)=O)cc2)o1 |  | 21.9 µM |  | 28.8 µM |  | 4.54 µM |  | 29.4 µM |  | 30.5 µM |  | 8.91 µM |  | 4.32 |  | 39.2 µM |  | 18.2 µM |  | 30.9 µM
4 | COc1c(/C=C/C=O)cc2c(c1OC)OCO2 |  | > 100 µM |  | 84.1 µM |  | > 100 µM |  | 29.1 µM |  | > 100 µM |  | 64 µM |  | 64.8 |  | 57.4 µM |  | > 100 µM |  | > 100 µM
5 | N#CC1=C(N)NC(=S)NC12Nc1ccccc1S2 (centres undefined) | 17.2 | > 100 µM | 21.4 | 79.8 µM | 29 | > 100 µM | 15 | 45 µM | 26.7 | 88.7 µM | 24.2 | 56.8 µM | 15.8 | 46.8 | 44.2 | > 100 µM | 35.8 | > 100 µM |  | 
6 | O=C(O)c1ccc(C(O)(c2ccccc2)c2ccccc2)cc1 |  | > 100 µM |  | > 100 µM |  | > 100 µM |  | > 100 µM |  | > 100 µM |  | > 100 µM |  | > 100 |  |  |  | > 100 µM |  | > 100 µM
7 | O=C(O)c1cc(=O)cc(C(=O)O)o1 | > 100 | > 100 µM | > 100 | > 100 µM | > 100 | > 100 µM | > 100 | > 100 µM | > 100 | > 100 µM | > 100 | > 100 µM | > 100 | > 100 | > 100 | > 100 µM | > 100 | > 100 µM | > 100 | > 100 µM
8 | COc1cc(N2C(=O)[C@H](c3ccccc3)C2c2ccc(SC)cc2)cc(OC)c1OC (some centres undefined) | 0.0373 | > 100 µM | 0.0375 | > 100 µM | 1.66 | > 100 µM | 0.0463 | > 100 µM | 0.0335 | > 100 µM | > 100 | > 100 µM | 0.0411 | > 100 | 0.0489 | > 100 µM | 0.738 | > 100 µM | 0.0485 | > 100 µM
9 | CC(C)(C)CC(C)(C)c1ccc(O)c(Cc2ccc(Cl)cc2Cl)c1 | 1.69 | 3.05 µM | 1.56 | 2.9 µM | 1.51 | 2.86 µM | 1.31 | 2.58 µM | 1.65 | 3.05 µM | 1.68 | 3.24 µM | 1.79 | 4.22 | 1.44 | 2.95 µM | 1.5 | 2.83 µM | 1.6 | 2.95 µM
10 | O=Nc1c(-c2c(O)[nH]c3cc(Br)ccc23)[nH]c2ccccc12 | 1.23 | 2.56 µM | 1.87 | 8.52 µM | 2.05 | 3.95 µM | 0.109 | 1.45 µM | 1.42 | 4.48 µM | 2.35 | 6.44 µM | 3.26 | 64.2 | 1.11 | 3.41 µM | 0.334 | 2.03 µM | 1.52 | 3.66 µM
11 | COc1cc(/C=C2\CCC/C(=C\c3ccc(O)c(OC)c3)C2=O)ccc1O | 1.72 | 13.5 µM and 5.95 µM | 1.62 | 8.89 µM and 4.21 µM | 1.71 | 27 µM and 6.74 µM | 1.88 | 8.46 µM and 5.99 µM | 2.34 | 12.6 µM and 9.79 µM | 0.276 | 5.85 µM and 3.47 µM | 1.08 |  | 1.96 | 12.7 µM and 4.94 µM | 1.17 | 4.82 µM and 2.83 µM | 1.8 | 6.91 µM and 8.2 µM
12 | O=c1cnnc(N/N=C/c2ccccc2O)[nH]1 | 6.58 | > 100 µM | 2.11 | > 100 µM | 0.489 | 6.8 µM | 3.01 | > 100 µM | 1.28 | > 64.5 µM | 0.426 | 47.5 µM | 1.51 | > 100 | 21 | > 100 µM | 1.61 | 13.5 µM | 3.45 | > 87.3 µM
13 | C#CC(=O)Nc1cccc2c1cc(C)n2-c1nc2c(c(NCc3ccccc3)n1)CCCC2 | 1.18 | 2.54 µM | 0.178 | 0.338 µM |  |  | 0.478 | 0.942 µM | 0.127 | 0.645 µM | 0.0547 | 0.195 µM | < 0.0201 | 0.0507 | 1.25 | 2.92 µM | 0.0466 | 0.124 µM | 0.199 | 0.438 µM
14 | CCCCCCn1c(SC)nc(COC(=O)NC)c1COC(=O)NC |  | 30.1 µM |  |  |  | 37.8 µM |  | 29.1 µM |  | 69.3 µM |  |  |  | 71.7 |  | 49.9 µM |  | 31.3 µM |  | 30.6 µM

From PubChem BioAssay (NCI)
